From US12171755B2, “PAPD5 inhibitors and methods of use thereof” (Children's Medical Center Corporation, priority 2017, dated 2024)

Biological target: T1, PAPD5 (Homo sapiens, UniProt Q8NDF8)
T1 construct: made in house
Experiment: High-throughput luminescence (KinaseGlo) RNA polyadenylation assay, ATP utilization by recombinant PAPD5
Format: biochemical
Conditions: for Fold-change determined at compound concentration 33 μM: 33 μM compound; for Fold-change determined at compound concentration 100 μM: higher = higher inhibition
Outline: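 Values are ratios of inhibitor to DMSO luminescence, so larger numbers mean less ATP consumed. Screening was run in duplicate with a 2 h room-temperature reaction of recombinant PAPD5, ATP and oligo RNA substrate plus compound. Residual ATP was detected after a 10 min KinaseGlo step.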

[1] = Table 4 (entries of Table 5), ratio of luminescence with inhibitor to DMSO
[2] = Table 4 (entries of Table 5), 100 μM compound, ratio of luminescence with inhibitor to DMSO

T1 sequence (Q8NDF8 68-698 isoform Q8NDF8-5): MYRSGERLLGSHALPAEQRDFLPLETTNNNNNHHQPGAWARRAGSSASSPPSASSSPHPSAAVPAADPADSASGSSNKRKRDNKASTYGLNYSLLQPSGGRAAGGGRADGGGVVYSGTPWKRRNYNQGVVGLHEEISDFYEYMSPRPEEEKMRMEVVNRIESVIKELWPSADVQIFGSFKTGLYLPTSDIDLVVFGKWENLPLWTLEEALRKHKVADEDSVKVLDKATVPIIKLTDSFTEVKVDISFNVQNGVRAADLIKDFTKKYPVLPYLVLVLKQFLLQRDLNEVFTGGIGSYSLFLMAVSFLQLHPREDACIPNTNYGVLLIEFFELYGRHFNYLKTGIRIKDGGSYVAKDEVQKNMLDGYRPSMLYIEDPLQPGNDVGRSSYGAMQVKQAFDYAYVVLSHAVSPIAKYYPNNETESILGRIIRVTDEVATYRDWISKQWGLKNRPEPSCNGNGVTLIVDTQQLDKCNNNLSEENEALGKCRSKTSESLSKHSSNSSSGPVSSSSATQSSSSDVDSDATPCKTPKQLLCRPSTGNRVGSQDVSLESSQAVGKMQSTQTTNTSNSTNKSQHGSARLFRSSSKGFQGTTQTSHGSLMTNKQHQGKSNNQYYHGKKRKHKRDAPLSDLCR

Cc1ccc(S(=O)(=O)NC2=NC3=NC(c4ccccc4)=CC(c4ccc(Cl)cc4)N3N2)cc1 (stereo not drawn) [Entry 159, N-[7-(4-chlorophenyl)-5-phenyl-1,7-dihydro-[1,2,4]triazolo[1,5-a]pyrimidin-2-yl]-4-methylbenzenesulfonamide]
Fold-change determined at compound concentration 33 μM [1]: 1.12 | Fold-change determined at compound concentration 100 μM [2]: 1.22

CCS(=O)(=O)c1nc2ccc(NS(=O)(=O)c3ccc(F)c(F)c3)cc2s1 [Entry 206, N-(2-(ethylsulfonyl)benzo[d]thiazol-6-yl)-3,4-difluorobenzenesulfonamide]
Fold-change determined at compound concentration 33 μM [1]: 1.08 | Fold-change determined at compound concentration 100 μM [2]: 1.225

Cc1ccc(-c2cn3c(n2)sc2ccc(C(=O)NCCCN4CCCCCC4)cc23)cc1 [Entry 187, N-[3-(azepan-1-yl)propyl]-2-(4-methylphenyl)imidazo[2,1-b][1,3]benzothiazole-6-carboxamide]
Fold-change determined at compound concentration 33 μM [1]: 1.108 | Fold-change determined at compound concentration 100 μM [2]: 1.262

CC1CCN(C(=O)CSc2nc3c(c(=O)n2Cc2ccccc2)SCC3)CC1 [Entry 232, 3-benzyl-2-((2-(4-methylpiperidin-1-yl)-2-oxoethyl)thio)-6,7-dihydrothieno[3,2-d]pyrimidin-4(3H)-one]
Fold-change determined at compound concentration 33 μM [1]: 1.198 | Fold-change determined at compound concentration 100 μM [2]: 1.342

CC(C)Cn1c(=O)c(-c2ccc(C(=O)Nc3ccc4c(c3)OCCO4)cc2)nc2ccccc21 [Entry 219, N-(2,3-dihydro-1,4-benzodioxin-6-yl)-4-[4-(2-methylpropyl)-3-oxoquinoxalin-2-yl]benzamide]
Fold-change determined at compound concentration 33 μM [1]: 1.086 | Fold-change determined at compound concentration 100 μM [2]: 1.339

Cc1nc(-c2cnccn2)nc2c1CC(=O)N2CC1CCCO1 (stereo not drawn) [Entry 230, 4-methyl-2-(2-pyrazinyl)-7-(tetrahydro-2-furanylmethyl)-5,7-dihydro-6H-pyrrolo[2,3-d]pyrimidin-6-one]
Fold-change determined at compound concentration 33 μM [1]: 1.053 | Fold-change determined at compound concentration 100 μM [2]: 1.527

NC(=O)CN1c2ccc(F)cc2-c2ccccc2S1(=O)=O [Entry 241, 2-(9-fluoro-5,5-dioxido-6H-dibenzo[c,e][1,2]thiazin-6-yl)acetamide]
Fold-change determined at compound concentration 33 μM [1]: 1.099 | Fold-change determined at compound concentration 100 μM [2]: 1.249

O=C(O)C1CC(=O)N(Cc2ccc3c(c2)OCO3)C1 (stereo not drawn) [1-(1,3-benzodioxol-5-ylmethyl)-5-oxopyrrolidine-3-carboxylic acid]
fold change at 100 μM concentration in the assay (100 μM compound): 3.9

CCOC(=O)C1CCN(c2nnc(Cc3ccncc3)c3ccccc23)CC1 [Entry 53, Ethyl 1-[4-(pyridin-4-ylmethyl)phthalazin-1-yl]piperidine-4-carboxylate]
Fold-change determined at compound concentration 33 μM [1]: 1.308 | Fold-change determined at compound concentration 100 μM [2]: 1.807

Cc1ccc2cccc(NC(=O)c3cccnc3)c2n1 [Entry 86, N-(2-methylquinolin-8-yl)nicotinamide]
Fold-change determined at compound concentration 33 μM [1]: 1.085 | Fold-change determined at compound concentration 100 μM [2]: 1.233

CCn1cc(C(=O)O)c(=O)c2cc(F)c(N3CCN(C)CC3)cc21 [Entry 103, 1-ethyl-6-fluoro-7-(4-methylpiperazin-1-yl)-4-oxo-1,4-dihydroquinoline-3-carboxylic acid]
Fold-change determined at compound concentration 33 μM [1]: 1.04 | Fold-change determined at compound concentration 100 μM [2]: 1.218

Cn1c(=O)c2nc(SCCC(=O)O)n(Cc3ccccc3)c2n(C)c1=O [Entry 82, 3-(9-benzyl-1,3-dimethyl-2,6-dioxopurin-8-yl)sulfanylpropanoic acid]
Fold-change determined at compound concentration 33 μM [1]: 1.122 | Fold-change determined at compound concentration 100 μM [2]: 1.306

COc1ccc(-c2n[nH]c3nc(-c4cc(OC)c(OC)c(OC)c4)cc(C(=O)O)c23)cc1 [Entry 183, 3-(4-methoxyphenyl)-6-(3,4,5-trimethoxyphenyl)-1H-pyrazolo[3,4-b]pyridine-4-carboxylic acid]
Fold-change determined at compound concentration 33 μM [1]: 1.152 | Fold-change determined at compound concentration 100 μM [2]: 1.346

COC(=O)c1c(NC(=O)c2ccccc2C(=O)O)sc2c1CCCC2 [Entry 199, 2-({[3-(methoxycarbonyl)-4,5,6,7-tetrahydro-1-benzothien-2-yl]amino}carbonyl)benzoic acid]
Fold-change determined at compound concentration 33 μM [1]: 1.199 | Fold-change determined at compound concentration 100 μM [2]: 1.607

Cc1ccc2c(=O)cc(CSc3ncn[nH]3)[nH]c2c1C [Entry 107, 7,8-dimethyl-2-(1H-1,2,4-triazol-5-ylsulfanylmethyl)-1H-quinolin-4-one]
Fold-change determined at compound concentration 33 μM [1]: 1.319 | Fold-change determined at compound concentration 100 μM [2]: 1.883

COc1c2ccoc2nc2c(OC)cccc12 [Entry 92, 4,8-dimethoxyfuro[2,3-b]quinoline]
Fold-change determined at compound concentration 33 μM [1]: 1.175 | Fold-change determined at compound concentration 100 μM [2]: 1.478

CCc1cc(=O)n2nc(NCc3ccccc3C)nc2[nH]1 [Entry 143, 5-ethyl-2-[(2-methylbenzyl)amino][1,2,4]triazolo[1,5-a]pyrimidin-7(4H)-one]
Fold-change determined at compound concentration 33 μM [1]: 1.116 | Fold-change determined at compound concentration 100 μM [2]: 1.255

O=C(O)CSc1nnc2n(-c3ccccc3)c3ccccc3n12 [Entry 229, [(9-Phenyl-9H-[1,2,4]triazolo[4,3-a]benzimidazol-3-yl)thio]acetic acid]
Fold-change determined at compound concentration 33 μM [1]: 1.249 | Fold-change determined at compound concentration 100 μM [2]: 1.704

COc1cccc(-c2nnc3n(CCc4ccccc4)c(=O)c4ccccc4n23)c1O [Entry 225, (1Z)-1-(5-methoxy-6-oxocyclohexa-2,4-dien-1-ylidene)-4-(2-phenylethyl)-2H-[1,2,4]triazolo[4,3-a]quinazolin-5-one]
Fold-change determined at compound concentration 33 μM [1]: 1.173 | Fold-change determined at compound concentration 100 μM [2]: 1.219

c1cc(CNc2ncnc3sc4c(c23)CCCC4)ccn1 [Entry 41, N-(pyridin-4-ylmethyl)-5,6,7,8-tetrahydro[1]benzothieno[2,3-d]pyrimidin-4-amine]
Fold-change determined at compound concentration 10 μM (Table 4 (entries of Table 5), 10 μM compound, ratio of luminescence with inhibitor to DMSO): 1.249 | Fold-change determined at compound concentration 33 μM [1]: 1.621 | Fold-change determined at compound concentration 100 μM [2]: 2.279

Cc1cccc2c(=O)cc(C(=O)Nc3nnc(C(C)C)s3)oc12 [Entry 117, 8-methyl-4-oxo-N-(5-propan-2-yl-1,3,4-thiadiazol-2-yl)chromene-2-carboxamide]
Fold-change determined at compound concentration 33 μM [1]: 1.177 | Fold-change determined at compound concentration 100 μM [2]: 1.444

Cc1cc(=O)oc2cc(OCC(=O)Nc3ccc(O)c(C(=O)O)c3)ccc12 [Entry 130, 2-hydroxy-5-[[2-(4-methyl-2-oxochromen-7-yl)oxyacetyl]amino]benzoic acid]
Fold-change determined at compound concentration 33 μM [1]: 1.086 | Fold-change determined at compound concentration 100 μM [2]: 1.212

COc1ccc(-c2[nH]nc3nc(-c4cc(OC)c(OC)c(OC)c4)cc(C(=O)O)c23)cc1 [Entry 141, 3-(4-methoxyphenyl)-6-(3,4,5-trimethoxyphenyl)-2H-pyrazolo[3,4-b]pyridine-4-carboxylic acid]
Fold-change determined at compound concentration 33 μM [1]: 1.308 | Fold-change determined at compound concentration 100 μM [2]: 1.882

CCCc1cc(=O)n2nc(CNc3ccc(Cl)cc3)nc2[nH]1 [Entry 155, 2-{[(4-chlorophenyl)amino]methyl}-5-propyl[1,2,4]triazolo[1,5-a]pyrimidin-7(4H)-one]
Fold-change determined at compound concentration 33 μM [1]: 1.097 | Fold-change determined at compound concentration 100 μM [2]: 1.372

Cn1c(=O)c2nc(SCC(=O)O)n(CCc3ccccc3)c2n(C)c1=O [Entry 79, 2-[1,3-dimethyl-2,6-dioxo-9-(2-phenylethyl)purin-8-yl]sulfanylacetic acid]
Fold-change determined at compound concentration 33 μM [1]: 1.164 | Fold-change determined at compound concentration 100 μM [2]: 1.447

CC(C)Cn1cc(NC(=O)NCc2ccc(Cl)cc2)c2ccccc2c1=O [Entry 58, 1-[(4-chlorophenyl)methyl]-3-[2-(2-methylpropyl)-1-oxoisoquinolin-4-yl]urea]
Fold-change determined at compound concentration 33 μM [1]: 1.076 | Fold-change determined at compound concentration 100 μM [2]: 1.364

CN(C)S(=O)(=O)c1ccc2c(c1)c(C(=O)n1ccnc1)cn2C [Entry 108, 3-(I-Imidazole-1-carbonyl)-N,N,1-trimethylindole-5-sulfonamide]
Fold-change determined at compound concentration 33 μM [1]: 1.256 | Fold-change determined at compound concentration 100 μM [2]: 1.547

CCOCCCNC(=O)Cn1cc2c(n1)-c1c(oc(C(=O)N3CCCC3)c1C)CC2 [Entry 169, N-(3-ethoxypropyl)-2-[8-methyl-7-(pyrrolidine-1-carbonyl)-4,5-dihydrofuro[2,3-g]indazol-2-yl]acetamide]
Fold-change determined at compound concentration 33 μM [1]: 1.455 | Fold-change determined at compound concentration 100 μM [2]: 1.879

Cn1c(=O)c2nc(SCC(=O)O)n(Cc3ccccc3)c2n(C)c1=O [Entry 80, 2-(9-benzyl-1,3-dimethyl-2,6-dioxopurin-8-yl)sulfanylacetic acid]
Fold-change determined at compound concentration 33 μM [1]: 1.164 | Fold-change determined at compound concentration 100 μM [2]: 1.55

O=c1c2c([nH]c3nc(CNc4ccccc4F)nn13)CCC2 [Entry 153, 2-{[(2-fluorophenyl)amino]methyl}-4,5,6,7-tetrahydro-8H-cyclopenta[d][1,2,4]triazolo[1,5-a]pyrimidin-8-one]
Fold-change determined at compound concentration 33 μM [1]: 1.077 | Fold-change determined at compound concentration 100 μM [2]: 1.259
